Experimental data: patent US20240174662A1, “SMALL MOLECULE INHIBITORS OF SALT INDUCIBLE KINASES” (Janssen Biotech, Inc., priority 2021, published 2024)

What follows are molecules tested against SIK2 (Homo sapiens (Human), UniProt Q9H0K1) (assay: SIK2 Enzymatic Assay Version 2 (High ATP)). Details: 3 mM ATP and 200 μM HDAC5tide final, ADP-Glo Max luminescence.
Format: biochemical
Outline: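 Run at room temperature; SIK2 enzyme at 6 nM (2× final) preincubated with compound 30 min before reaction. ADP formation detected by ADP-Glo Max (2 h reagent, 1 h detection) with luminescence read-out.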

Sequence of SIK2 (Q9H0K1 whole entry, species assumed): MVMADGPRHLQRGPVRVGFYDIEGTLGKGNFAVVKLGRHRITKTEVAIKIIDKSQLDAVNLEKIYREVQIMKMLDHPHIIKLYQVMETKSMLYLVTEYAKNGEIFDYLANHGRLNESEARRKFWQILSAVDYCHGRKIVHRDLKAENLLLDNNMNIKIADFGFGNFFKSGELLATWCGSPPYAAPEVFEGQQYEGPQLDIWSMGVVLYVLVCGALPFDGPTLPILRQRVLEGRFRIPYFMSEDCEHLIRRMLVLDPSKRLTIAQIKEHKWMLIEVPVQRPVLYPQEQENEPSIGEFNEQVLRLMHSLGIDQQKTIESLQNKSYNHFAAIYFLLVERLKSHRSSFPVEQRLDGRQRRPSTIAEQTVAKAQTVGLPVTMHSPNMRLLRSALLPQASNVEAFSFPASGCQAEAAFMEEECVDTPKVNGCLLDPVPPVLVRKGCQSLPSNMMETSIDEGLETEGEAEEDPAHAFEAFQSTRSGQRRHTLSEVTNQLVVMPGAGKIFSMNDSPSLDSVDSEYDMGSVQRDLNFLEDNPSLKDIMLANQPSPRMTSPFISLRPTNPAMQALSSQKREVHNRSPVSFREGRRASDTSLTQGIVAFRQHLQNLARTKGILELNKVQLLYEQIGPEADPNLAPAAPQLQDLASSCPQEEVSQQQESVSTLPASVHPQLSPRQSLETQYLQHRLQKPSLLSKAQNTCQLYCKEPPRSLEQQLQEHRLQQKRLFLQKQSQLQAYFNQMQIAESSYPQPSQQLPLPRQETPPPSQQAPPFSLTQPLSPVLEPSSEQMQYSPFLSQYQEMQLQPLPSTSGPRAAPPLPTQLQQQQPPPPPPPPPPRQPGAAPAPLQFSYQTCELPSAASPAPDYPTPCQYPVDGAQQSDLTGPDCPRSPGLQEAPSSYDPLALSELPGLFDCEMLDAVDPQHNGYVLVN

Row | IC50 [nM] | SMILES
1 | 98.3 | CN1CC(F)(COc2cnn(C)c2-c2ccn3nc(NC(=O)C4CC4)cc3c2)C1 [Example 405, N-[5-[4-[(3-fluoro-1-methyl-azetidin-3-yl)methoxy]-2-methyl-pyrazol-3-yl]pyrazolo[1,5-a]pyridin-2-yl]cyclopropanecarboxamide]
2 | 79.5 | CCC1(COc2cnn(C)c2-c2ccn3nc(NC(=O)C4CC4)cc3c2)CN(C)C1 [Example 408, N-[5-[4-[(3-ethyl-1-methyl-azetidin-3-yl)methoxy]-2-methyl-pyrazol-3-yl]pyrazolo[1,5-a]pyridin-2-yl]cyclopropanecarboxamide]
3 | 122 | Cn1ncc(OC[C@@H]2CCCN2)c1-c1ccn2nc(NC(=O)C3CC3)cc2c1 [Example 412, N-[5-[2-methyl-4-[[(2S)-pyrrolidin-2-yl]methoxy]pyrazol-3-yl]pyrazolo[1,5-a]pyridin-2-yl]cyclopropanecarboxamide]
4 | 130 | CN1C[C@@H](COc2cnn(C)c2-c2ccn3nc(NC(=O)C4CC4)cc3c2)[C@H](O)C1 [Example 417, N-[5-[4-[[(3S,4S)-4-hydroxy-1-methyl-pyrrolidin-3-yl]methoxy]-2-methyl-pyrazol-3-yl]pyrazolo[1,5-a]pyridin-2-yl]cyclopropanecarboxamide]
5 | 136 | CN1CCC[C@H]1COc1cnn(C)c1-c1ccn2nc(NC(=O)C3CC3)cc2c1 [Example 419, N-[5-[2-methyl-4-[[(2S)-1-methylpyrrolidin-2-yl]methoxy]pyrazol-3-yl]pyrazolo[1,5-a]pyridin-2-yl]cyclopropanecarboxamide]
6 | 171 | CCN1CCC[C@H]1COc1cnn(C)c1-c1ccn2nc(NC(=O)C3CC3)cc2c1 [Example 420, N-[5-[4-[[(2S)-1-ethylpyrrolidin-2-yl]methoxy]-2-methyl-pyrazol-3-yl]pyrazolo[1,5-a]pyridin-2-yl]cyclopropanecarboxamide]
7 | 151 | CO[C@@H]1CN(C)C[C@H]1COc1cnn(C)c1-c1ccn2nc(NC(=O)C3CC3)cc2c1 [Example 423, N-[5-[4-[[(3S,4S)-4-methoxy-1-methyl-pyrrolidin-3-yl]methoxy]-2-methyl-pyrazol-3-yl]pyrazolo[1,5-a]pyridin-2-yl]cyclopropanecarboxamide]
8 | 96.1 | CN1C[C@H](COc2cnn(C)c2-c2ccn3nc(NC(=O)C4CC4)cc3c2)[C@@H](O)C1 [Example 424, N-[5-[4-[[(3R,4R)-4-hydroxy-1-methyl-pyrrolidin-3-yl]methoxy]-2-methyl-pyrazol-3-yl]pyrazolo[1,5-a]pyridin-2-yl]cyclopropanecarboxamide]
9 | 155 | Cn1ncc(OC[C@H]2CCN2CC#N)c1-c1ccn2nc(NC(=O)C3CC3)cc2c1 [Example 425, N-[5-[4-[[(2R)-1-(cyanomethyl)azetidin-2-yl]methoxy]-2-methyl-pyrazol-3-yl]pyrazolo[1,5-a]pyridin-2-yl]cyclopropanecarboxamide]
10 | 73.5 | CCN1CCC[C@@H]1COc1cnn(C)c1-c1ccn2nc(NC(=O)C3CC3)cc2c1 [Example 427, N-[5-[4-[[(2R)-1-ethylpyrrolidin-2-yl]methoxy]-2-methyl-pyrazol-3-yl]pyrazolo[1,5-a]pyridin-2-yl]cyclopropanecarboxamide]
11 | 183 | COCCN1CCC[C@@H]1COc1cnn(C)c1-c1ccn2nc(NC(=O)C3CC3)cc2c1 [Example 428, N-[5-[4-[[(2R)-1-(2-methoxyethyl)pyrrolidin-2-yl]methoxy]-2-methyl-pyrazol-3-yl]pyrazolo[1,5-a]pyridin-2-yl]cyclopropanecarboxamide]
12 | 99.9 | Cn1ncc(OC[C@H]2CCN2Cc2ccccc2)c1-c1ccn2nc(NC(=O)C3CC3)cc2c1 [Example 429, N-[5-[4-[[(2R)-1-benzylazetidin-2-yl]methoxy]-2-methyl-pyrazol-3-yl]pyrazolo[1,5-a]pyridin-2-yl]cyclopropanecarboxamide]
13 | 97 | Cn1ccc(CN2CC[C@@H]2COc2cnn(C)c2-c2ccn3nc(NC(=O)C4CC4)cc3c2)n1 [Example 430, N-[5-[2-methyl-4-[[(2R)-1-[(1-methylpyrazol-3-yl)methyl]azetidin-2-yl]methoxy]pyrazol-3-yl]pyrazolo[1,5-a]pyridin-2-yl]cyclopropanecarboxamide]
14 | 181 | Cn1ncc(OC[C@H]2CCN2CCOC(F)(F)F)c1-c1ccn2nc(NC(=O)C3CC3)cc2c1 [Example 431, N-[5-[2-methyl-4-[[(2R)-1-[2-(trifluoromethoxy)ethyl]azetidin-2-yl]methoxy]pyrazol-3-yl]pyrazolo[1,5-a]pyridin-2-yl]cyclopropanecarboxamide]
15 | 122 | Cn1ncc(OC[C@H]2CCN2CC2COC2)c1-c1ccn2nc(NC(=O)C3CC3)cc2c1 [Example 433, N-[5-[2-methyl-4-[[(2R)-1-(oxetan-3-ylmethyl)azetidin-2-yl]methoxy]pyrazol-3-yl]pyrazolo[1,5-a]pyridin-2-yl]cyclopropanecarboxamide]
16 | 79.7 | COC(C)(C)CN1CC[C@@H]1COc1cnn(C)c1-c1ccn2nc(NC(=O)C3CC3)cc2c1 [Example 435, N-[5-[4-[[(2R)-1-(2-methoxy-2-methyl-propyl)azetidin-2-yl]methoxy]-2-methyl-pyrazol-3-yl]pyrazolo[1,5-a]pyridin-2-yl]cyclopropanecarboxamide]
17 | 85.6 | C[C@H]1CN(C)[C@H]1COc1cnn(C)c1-c1ccn2nc(NC(=O)C3CC3)cc2c1 [Example 437, N-[5-[4-[[(2R,3S)-1,3-dimethylazetidin-2-yl]methoxy]-2-methyl-pyrazol-3-yl]pyrazolo[1,5-a]pyridin-2-yl]cyclopropanecarboxamide]

The next lines start with the molecule.

Row | SMILES | IC50 [nM]
18 | COC1(COc2cnn(C)c2-c2ccn3nc(NC(=O)C4CC4)cc3c2)CN(C)C1 [Example 406, N-[5-[4-[(3-methoxy-1-methyl-azetidin-3-yl)methoxy]-2-methyl-pyrazol-3-yl]pyrazolo[1,5-a]pyridin-2-yl]cyclopropanecarboxamide] | 174
19 | Cn1ncc(OC2CCNCC2)c1-c1ccn2nc(NC(=O)C3CC3)cc2c1 [Example 407, N-[5-[2-methyl-4-(4-piperidyloxy)pyrazol-3-yl]pyrazolo[1,5-a]pyridin-2-yl]cyclopropanecarboxamide] | 86
20 | CN1CC(COc2cnn(C)c2-c2ccn3nc(NC(=O)C4CC4)cc3c2)(c2ccccc2)C1 [Example 410, N-[5-[2-methyl-4-[(1-methyl-3-phenyl-azetidin-3-yl)methoxy]pyrazol-3-yl]pyrazolo[1,5-a]pyridin-2-yl]cyclopropanecarboxamide] | 72.5
21 | CN1C[C@H](F)[C@H](Oc2cnn(C)c2-c2ccn3nc(NC(=O)C4CC4)cc3c2)C1 [Example 415, N-[5-[4-[(3R,4S)-4-fluoro-1-methyl-pyrrolidin-3-yl]oxy-2-methyl-pyrazol-3-yl]pyrazolo[1,5-a]pyridin-2-yl]cyclopropanecarboxamide] | 124
22 | Cn1ncc(OC[C@@H]2CNC[C@H]2O)c1-c1ccn2nc(NC(=O)C3CC3)cc2c1 [Example 416, N-[5-[4-[[(3S,4S)-4-hydroxypyrrolidin-3-yl]methoxy]-2-methyl-pyrazol-3-yl]pyrazolo[1,5-a]pyridin-2-yl]cyclopropanecarboxamide] | 73.6
23 | CO[C@@H]1CNC[C@H]1COc1cnn(C)c1-c1ccn2nc(NC(=O)C3CC3)cc2c1 [Example 422, N-[5-[4-[[(3S,4S)-4-methoxypyrrolidin-3-yl]methoxy]-2-methyl-pyrazol-3-yl]pyrazolo[1,5-a]pyridin-2-yl]cyclopropanecarboxamide] | 96.9
24 | Cn1ncc(OC[C@@H](N)C(C)(C)O)c1-c1ccn2nc(NC(=O)C3CC3)cc2c1 [Example 426, N-[5-[4-[(2R)-2-amino-3-hydroxy-3-methyl-butoxy]-2-methyl-pyrazol-3-yl]pyrazolo[1,5-a]pyridin-2-yl]cyclopropanecarboxamide] | 71.6
25 | CN1C[C@H]2C[C@H]2[C@@H]1COc1cnn(C)c1-c1ccn2nc(NC(=O)C3CC3)cc2c1 [Example 432, N-[5-[2-methyl-4-[[(1S,4R,5R)-3-methyl-3-azabicyclo[3.1.0]hexan-4-yl]methoxy]pyrazol-3-yl]pyrazolo[1,5-a]pyridin-2-yl]cyclopropanecarboxamide] | 76.8
26 | CNC1(COc2cnn(C)c2-c2ccn3nc(NC(=O)C4CC4)cc3c2)CC1 [Example 434, N-[5-[2-methyl-4-[[1-(methylamino)cyclopropyl]methoxy]pyrazol-3-yl]pyrazolo[1,5-a]pyridin-2-yl]cyclopropanecarboxamide] | 101
27 | Cn1ncc(OC[C@H]2CCN2c2ccccn2)c1-c1ccn2nc(NC(=O)C3CC3)cc2c1 [Example 436, N-[5-[2-methyl-4-[[(2R)-1-(2-pyridyl)azetidin-2-yl]methoxy]pyrazol-3-yl]pyrazolo[1,5-a]pyridin-2-yl]cyclopropanecarboxamide] | 79
28 | Cc1cc(Nc2cc3cc(-c4c(OC[C@H]5C[C@H](O)C5)cnn4C)ccn3n2)nc(C)n1 [Example 438, 3-[[5-[2-[(2,6-dimethylpyrimidin-4-yl)amino]pyrazolo[1,5-a]pyridin-5-yl]-1-methyl-pyrazol-4-yl]oxymethyl]cyclobutanol] | 88
29 | Cc1cc(Nc2cc3cc(-c4c(O[C@H]5CCN[C@@H]5C)cnn4C)ccn3n2)nc(C)n1 [Example 442, N-(2,6-dimethylpyrimidin-4-yl)-5-[2-methyl-4-[(2R,3S)-2-methylpyrrolidin-3-yl]oxy-pyrazol-3-yl]pyrazolo[1,5-a]pyridin-2-amine] | 106
30 | Cc1cc(Nc2cc3cc(-c4c(OC[C@H]5C[C@H](C)CN5)cnn4C)ccn3n2)nc(C)n1 [Example 446, N-(2,6-dimethylpyrimidin-4-yl)-5-[2-methyl-4-[[(2R,4S)-4-methylpyrrolidin-2-yl]methoxy]pyrazol-3-yl]pyrazolo[1,5-a]pyridin-2-amine] | 111
31 | CN1CC[C@H](Oc2cnn(C)c2-c2ccn3nc(Nc4cccnn4)cc3c2)C1 [Example 449, 5-[2-methyl-4-[(3S)-1-methylpyrrolidin-3-yl]oxy-pyrazol-3-yl]-N-pyridazin-3-yl-pyrazolo[1,5-a]pyridin-2-amine] | 89.5
